In this test the target is T1, mGluR5 (Homo sapiens, UniProt P41594).
T1 construct: expressed in transfected cells
The test is described as follows: inhibition of the glutamate (agonist) induced elevation of the inositol phosphate turnover. It counts as cell-based. To be noted: inhibition of glutamate induced elevation of inositol phosphate turnover at 0.1 μM. An excerpt: This can be determined in vitro for example at recombinant human metabotropic glutamate receptors, especially PLC-coupled subtypes thereof such as mGluR5, using different procedures like, for example, measurement of the inhibition of the agonist induced elevation of intracellular Ca^2+ concentration in accordance with L. P. Daggett et al., Neuropharm. Vol. 34, pages 871-886 (1995), P. J. Flor et al., J. Neurochem. Vol. 67, pages 58-63 (1996) or by determination to what extent the agonist induced elevation of the inositol phosphate turnover is inhibited as described by T. Knoepfel et al., Eur. J. Pharmacol. Vol. 288, pages 389-392 (1994), L. P. Daggett et al., Neuropharm. Vol. 67, pages 58-63 (1996) and references cited therein. Isolation and expression of human mGluR subtypes are described in U.S. Pat. No. 5,521,297. Selected agents of the invention show IC50 values for the inhibition of the agonist (e.g. glutamate or quisqualate) induced elevation of intracellular Ca2+ concentration or the agonist (e.g. glutamate or quisqualate) induced inositol phosphate turnover, measured in recombinant cells expressing hmGluR^5a of about 0.1 nM to about 50 μM.
Activity of compounds of the present invention was examined by determination to what extent the agonist induced elevation of the inositol phosphate turnover is inhibited as described by T. Knoepfel et al., Eur. J. Pharmacol. Vol. 288, pages 389-392 (1994), L. P. Daggett et al., Neuropharm. Vol. 67, pages 58-63 (1996) and references cited therein.
The table below represents percentages of inhibition of the glutamate induced elevation of the inositol phosphate turnover at a concentration of 0.1 μM.

T1 sequence (P41594 21-1180 isoform P41594-2 limits assumed): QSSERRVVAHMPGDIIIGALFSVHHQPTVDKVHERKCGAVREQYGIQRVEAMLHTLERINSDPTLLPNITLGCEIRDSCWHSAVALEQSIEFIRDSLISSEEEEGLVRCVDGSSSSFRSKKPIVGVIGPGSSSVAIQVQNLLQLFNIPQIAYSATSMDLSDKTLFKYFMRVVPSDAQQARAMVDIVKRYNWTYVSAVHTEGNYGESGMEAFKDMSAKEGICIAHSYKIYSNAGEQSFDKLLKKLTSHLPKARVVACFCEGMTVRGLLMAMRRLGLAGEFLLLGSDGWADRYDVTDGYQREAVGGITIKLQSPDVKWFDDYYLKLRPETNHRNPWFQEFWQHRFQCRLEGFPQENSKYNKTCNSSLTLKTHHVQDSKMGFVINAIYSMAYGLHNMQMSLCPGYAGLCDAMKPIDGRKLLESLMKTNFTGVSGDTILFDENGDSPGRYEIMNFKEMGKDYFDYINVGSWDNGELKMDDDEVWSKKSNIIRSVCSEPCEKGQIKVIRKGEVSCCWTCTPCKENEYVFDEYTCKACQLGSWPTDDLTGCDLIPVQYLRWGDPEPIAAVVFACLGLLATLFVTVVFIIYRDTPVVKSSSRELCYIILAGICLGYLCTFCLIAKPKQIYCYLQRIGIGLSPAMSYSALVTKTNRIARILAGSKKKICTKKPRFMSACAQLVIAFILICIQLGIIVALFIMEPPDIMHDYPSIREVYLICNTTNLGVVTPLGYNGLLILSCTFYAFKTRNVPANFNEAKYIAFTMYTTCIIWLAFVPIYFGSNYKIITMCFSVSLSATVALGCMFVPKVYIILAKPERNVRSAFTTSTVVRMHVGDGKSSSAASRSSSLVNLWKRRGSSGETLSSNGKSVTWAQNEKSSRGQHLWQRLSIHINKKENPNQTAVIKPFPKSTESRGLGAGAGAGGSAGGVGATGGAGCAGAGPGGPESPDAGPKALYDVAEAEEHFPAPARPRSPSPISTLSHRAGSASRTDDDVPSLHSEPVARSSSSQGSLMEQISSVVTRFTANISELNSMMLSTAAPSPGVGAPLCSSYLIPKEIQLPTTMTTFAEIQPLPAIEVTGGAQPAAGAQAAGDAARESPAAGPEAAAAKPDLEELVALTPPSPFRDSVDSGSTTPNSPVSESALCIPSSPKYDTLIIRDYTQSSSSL

On to `CCCn1c(-c2ccc(Nc3ccc(OC)cc3)nc2)nc2cccc(Cl)c21` [Example 99, [5-(7-Chloro-1-propyl-1H-benzoimidazol-2-yl)-pyridin-2-yl]-(4-methoxy-phenyl)-amine], for which the inhibition at 0.1 µM was determined as 99%.

With `CCCn1c(-c2ccc(Nc3ccc(C)nc3)nc2)nc2cccc(Cl)c21` [Example 100, [5-(7-Chloro-1-propyl-1H-benzoimidazol-2-yl)-pyridin-2-yl]-(6-methyl-pyridin-3-yl)-amine], the inhibition at 0.1 µM is 100%.

In the case of `CCCn1c(-c2ccc(Nc3ccc(Cl)cc3)nc2)nc2cccc(Cl)c21` [Example 101, (4-Chloro-phenyl)-[5-(7-chloro-1-propyl-1H-benzoimidazol-2-yl)-pyridin-2-yl]-amine], the inhibition at 0.1 µM came to 95%.

Consider `CCCn1c(-c2ccc(Nc3ccc(C)nc3)nc2)nc2ccccc21` [Example 102, (6-Methyl-pyridin-3-yl)-[5-(1-propyl-1H-benzoimidazol-2-yl)-pyridin-2-yl]-amine], for which the inhibition at 0.1 µM amounted to 90%.

In the case of `CCCn1c(-c2ccc(Nc3ccc(C)cc3)nc2)nc2cccc(Cl)c21` [Example 103, [5-(7-Chloro-1-propyl-1H-benzoimidazol-2-yl)-pyridin-2-yl]-p-tolyl-amine], the inhibition at 0.1 µM is 97%.

For `CCCn1c(-c2ccc(Nc3ccc(Cl)cc3)nc2)nc2ccc(F)cc21` [Example 104, (4-Chloro-phenyl)-[5-(6-fluoro-1-propyl-1H-benzoimidazol-2-yl)-pyridin-2-yl]-amine], the inhibition at 0.1 µM turned out to be 84%.

On to `CCCn1c(-c2ccc(Nc3ccc(C)nc3)nc2)nc2ccc(F)cc21` [Example 105, [5-(6-Fluoro-1-propyl-1H-benzoimidazol-2-yl)-pyridin-2-yl]-(6-methyl-pyridin-3-yl)-amine], for which the inhibition at 0.1 µM was found to be 85%.

`CCCn1c(-c2ccc(Nc3ccc(C)cc3)nc2)nc2ccc(F)cc21` [Example 106, [5-(6-Fluoro-1-propyl-1H-benzoimidazol-2-yl)-pyridin-2-yl]-p-tolyl-amine]: the inhibition at 0.1 µM is 70%.

With `CCCn1c(-c2ccc(Nc3ccc(OC)cc3)nc2)nc2ccc(F)cc21` [Example 107, [5-(6-Fluoro-1-propyl-1H-benzoimidazol-2-yl)-pyridin-2-yl]-(4-methoxy-phenyl)-amine], the inhibition at 0.1 µM is 64%.

Turning to `Cc1ccc(Nc2ccc(-c3nc4cccc(Cl)c4n3CC(C)C)cn2)cc1` [Example 108, [5-(7-Chloro-1-isobutyl-1H-benzoimidazol-2-yl)-pyridin-2-yl]-p-tolyl-amine], the inhibition at 0.1 µM came to 98%.

On to `CC(C)Cn1c(-c2ccc(Nc3ccc(Cl)cc3)nc2)nc2cccc(Cl)c21` [Example 109, [5-(7-Chloro-1-isobutyl-1H-benzoimidazol-2-yl)-pyridin-2-yl]-(4-chloro-phenyl)-amine], for which the inhibition at 0.1 µM came out at 91%.

Turning to `COc1ccc(Nc2ccc(-c3nc4cccc(Cl)c4n3CC(C)C)cn2)cc1` [Example 110, [5-(7-Chloro-1-isobutyl-1H-benzoimidazol-2-yl)-pyridin-2-yl]-(4-methoxy-phenyl)-amine], the inhibition at 0.1 µM was determined as 95%.

Consider `Cc1ccc(Nc2ccc(-c3nc4cccc(Cl)c4n3CC(C)C)cn2)cn1` [Example 111, [5-(7-Chloro-1-isobutyl-1H-benzoimidazol-2-yl)-pyridin-2-yl]-(6-methyl-pyridin-3-yl)-amine], for which the inhibition at 0.1 µM is 97%.

Turning to `CCCn1c(-c2cnc(Nc3ccc(OC)cc3)c(Cl)c2)nc2ccccc21` [Example 114, [3-Chloro-5-(1-propyl-1H-benzoimidazol-2-yl)-pyridin-2-yl]-(4-methoxy-phenyl)-amine], the inhibition at 0.1 µM amounted to 99%.

`COc1ccc(Nc2ncc(-c3nc4cccc(Cl)c4n3CC(C)C)cc2Cl)cc1` [Example 114b, [3-chloro-5-(7-chloro-1-isobutyl-1H-benzoimidazol-2-yl)-pyridin-2-yl]-(4-methoxy-phenyl)-amine]: the inhibition at 0.1 µM came out at 100%.

`Cc1ccc(Nc2ncc(-c3nc4cccc(Cl)c4n3CC(C)C)cc2Cl)cn1` [Example 114c, [3-chloro-5-(7-chloro-1-isobutyl-1H-benzoimidazol-2-yl)-pyridin-2-yl]-(6-methyl-pyridin-3-yl)-amine]: the inhibition at 0.1 µM turned out to be 111%.

Turning to `CCCn1c(-c2ccc(Nc3ccc(OC)cc3)nc2)nc2cccc(F)c21` [Example 114d, [5-(7-fluoro-1-propyl-1H-benzoimidazol-2-yl)-pyridin-2-yl]-(4-methoxy-phenyl)-amine], the inhibition at 0.1 µM worked out at 82%.

As for `CCCn1c(-c2ccc(Nc3ccc(C)nc3)c(Cl)c2)nc2ccc(F)cc21` [Example 115, [2-Chloro-4-(6-Fluoro-1-propyl-1H-benzoimidazol-2-yl)-phenyl]-(6-methyl-pyridin-3-yl)-amine], the inhibition at 0.1 µM was found to be 99%.

`Cc1ccc(Nc2ccc(-c3nc4cccc(Cl)c4n3CC(C)C)cc2Cl)cn1` [Example 116, [2-Chloro-4-(7-Chloro-1-isobutyl-1H-benzoimidazol-2-yl)-phenyl]-(6-methyl-pyridin-3-yl)-amine]: the inhibition at 0.1 µM amounted to 100%.

One may read the inhibition as the drop in the measured response relative to a control, in per cent.

These data come from patent US20090105266A1, “Organic compounds” (priority 2007, published 2009).
